In series [1] the target is T1, cystathionine synthase (CS) (Oryctolagus cuniculus, UniProt Q9N0V7).
T1 sequence (Q9N0V7 1-551): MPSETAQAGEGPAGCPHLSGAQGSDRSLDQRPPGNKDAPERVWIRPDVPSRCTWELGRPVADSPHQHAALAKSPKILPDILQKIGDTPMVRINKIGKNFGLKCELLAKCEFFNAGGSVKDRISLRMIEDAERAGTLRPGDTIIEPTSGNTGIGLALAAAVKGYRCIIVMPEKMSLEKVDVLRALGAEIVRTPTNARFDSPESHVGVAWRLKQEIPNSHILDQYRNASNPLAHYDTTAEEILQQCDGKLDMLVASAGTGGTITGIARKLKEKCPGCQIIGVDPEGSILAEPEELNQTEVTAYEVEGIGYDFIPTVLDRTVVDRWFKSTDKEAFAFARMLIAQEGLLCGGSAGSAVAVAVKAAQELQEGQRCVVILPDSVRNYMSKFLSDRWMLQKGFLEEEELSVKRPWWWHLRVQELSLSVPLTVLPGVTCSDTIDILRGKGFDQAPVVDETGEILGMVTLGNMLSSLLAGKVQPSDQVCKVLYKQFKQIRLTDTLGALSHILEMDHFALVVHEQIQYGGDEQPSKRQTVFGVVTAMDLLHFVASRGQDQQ
Conditions: male, New Zealand, rabbit, in vivo, iv, 2 mg/kg.

The target in series [2] is T1, cystathionine synthase (CS). Put plainly: CS gateway enzyme breath test with homocysteine metaprobe, basal and after methionine load. As to conditions: n = 4.
Series [3] deals with T2, oxoprolinase (Homo sapiens, UniProt O14841).
T2 construct: Seven healthy volunteers (ages 22-39) each participated in two studies; from tissue; host or cells: whole body of human volunteers (oral dose, breath test)
T2 sequence (O14841 1-1288): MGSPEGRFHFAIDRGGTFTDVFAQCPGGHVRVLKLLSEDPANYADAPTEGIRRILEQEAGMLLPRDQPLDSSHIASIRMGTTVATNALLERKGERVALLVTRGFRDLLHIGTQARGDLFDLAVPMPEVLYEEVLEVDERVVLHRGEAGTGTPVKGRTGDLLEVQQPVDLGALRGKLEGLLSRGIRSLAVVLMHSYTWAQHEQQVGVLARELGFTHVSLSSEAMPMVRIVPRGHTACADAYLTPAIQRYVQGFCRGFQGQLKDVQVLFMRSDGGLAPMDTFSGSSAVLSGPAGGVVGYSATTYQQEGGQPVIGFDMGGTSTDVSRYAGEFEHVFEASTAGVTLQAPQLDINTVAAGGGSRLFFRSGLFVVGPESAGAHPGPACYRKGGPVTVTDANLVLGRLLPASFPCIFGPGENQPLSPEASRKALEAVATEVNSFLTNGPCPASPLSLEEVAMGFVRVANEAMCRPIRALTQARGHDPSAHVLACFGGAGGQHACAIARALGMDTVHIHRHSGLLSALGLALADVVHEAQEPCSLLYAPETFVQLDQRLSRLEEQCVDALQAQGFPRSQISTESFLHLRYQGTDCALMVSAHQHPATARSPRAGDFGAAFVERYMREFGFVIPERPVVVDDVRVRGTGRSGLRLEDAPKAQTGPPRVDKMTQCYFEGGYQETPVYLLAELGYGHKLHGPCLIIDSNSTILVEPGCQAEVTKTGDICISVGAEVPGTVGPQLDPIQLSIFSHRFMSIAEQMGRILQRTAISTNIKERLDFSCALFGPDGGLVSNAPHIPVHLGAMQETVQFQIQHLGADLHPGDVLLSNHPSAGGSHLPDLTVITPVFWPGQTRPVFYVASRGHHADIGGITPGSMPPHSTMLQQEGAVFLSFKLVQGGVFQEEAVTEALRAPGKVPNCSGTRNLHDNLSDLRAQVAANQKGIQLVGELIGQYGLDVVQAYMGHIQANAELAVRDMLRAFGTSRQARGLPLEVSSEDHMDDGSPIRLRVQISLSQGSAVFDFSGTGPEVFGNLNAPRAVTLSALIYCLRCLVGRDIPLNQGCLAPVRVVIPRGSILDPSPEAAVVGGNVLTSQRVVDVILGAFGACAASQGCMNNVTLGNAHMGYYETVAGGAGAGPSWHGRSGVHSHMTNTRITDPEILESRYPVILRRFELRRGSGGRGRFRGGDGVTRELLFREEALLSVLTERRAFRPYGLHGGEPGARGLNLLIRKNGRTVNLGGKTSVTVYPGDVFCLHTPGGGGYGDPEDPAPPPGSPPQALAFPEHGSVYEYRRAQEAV
As to the kind of experiment: 13C-OTC breath test, metabolic rate index with and without acetaminophen. The format is in vivo. Conditions: for Metabolic Rate Index, ACE+: 2 gm acetaminophen one hour prior to OTC; for Metabolic Rate Index, BASAL: oral 13C-OTC 1.5 mg/kg alone. How it is done:
Seven healthy volunteers (ages 22-39) each participated in two studies. After three days on a weight maintaining diet, each participant was given a drink containing ^13C-labelled OTC (1.5 mg/kg), following which blood and expired breath were sampled frequently. In the first test, each participant received the OTC alone. In the second study at least one week later, each participant ingested 2 gm acetaminophen one hour prior to the OTC drink. Expired breath samples were analyzed for the ^13C enrichment (APE) of CO2, and expressed as isotopic enrichment in atom per cent excess (APE×1000) versus time, in the usual manner and in accordance with the general protocol described in Example I. A second panel of probands (ages 53-73) were tested in a similar manner.
From the pattern of label enrichment, at least two types of kinetic processes are apparent, one is absorption, since the metaprobe was dispensed orally, and the other disposition.
Deconvolution of this model by equation transformation and coefficient matching (Wagner, 1993) afforded separate kinetic measurements for the post absorptive metabolism of OTC in the metabolic compartment, and this was expressed as a fractional catabolic rate (Lassen and Perl, 1979). Lastly, the per cent of metaprobe dose recovered in breath was computed from the cumulative integral of the ^13CO2 enrichment versus time plot multiplied by the CO2 production rate for each proband, which in these experiments were measured by indirect calorimetry (but can also be estimated from formulas that have been proven to correlate an individual's height, weight, age and gender with CO2 production). The metabolic index for OTC utilization by oxoprolinase was then computed by the simple expedient of multiplying the dose of metaprobe by the per cent recovery and then by the fractional catabolic rate.
The data from the validating trial in this Example III all corroborate the biochemical hypothesis concerning the OTC metaprobe's mode of action as an indicator of oxoprolinase activity and, therefore, its utility as a surrogate indicator for glutathione production capacity. The results, which are expressed in terms of nanomoles of OTC metabolized per kilogram body weight per minute for the basal condition (BASAL), post acetaminophen (ACE+), and the stimulatory difference between ACE+ and BASAL (STIM) are shown in Table 5.

Series [4] addresses T3, oxoprolinase (Rattus norvegicus, UniProt P97608).
T3 sequence (P97608 1-1288): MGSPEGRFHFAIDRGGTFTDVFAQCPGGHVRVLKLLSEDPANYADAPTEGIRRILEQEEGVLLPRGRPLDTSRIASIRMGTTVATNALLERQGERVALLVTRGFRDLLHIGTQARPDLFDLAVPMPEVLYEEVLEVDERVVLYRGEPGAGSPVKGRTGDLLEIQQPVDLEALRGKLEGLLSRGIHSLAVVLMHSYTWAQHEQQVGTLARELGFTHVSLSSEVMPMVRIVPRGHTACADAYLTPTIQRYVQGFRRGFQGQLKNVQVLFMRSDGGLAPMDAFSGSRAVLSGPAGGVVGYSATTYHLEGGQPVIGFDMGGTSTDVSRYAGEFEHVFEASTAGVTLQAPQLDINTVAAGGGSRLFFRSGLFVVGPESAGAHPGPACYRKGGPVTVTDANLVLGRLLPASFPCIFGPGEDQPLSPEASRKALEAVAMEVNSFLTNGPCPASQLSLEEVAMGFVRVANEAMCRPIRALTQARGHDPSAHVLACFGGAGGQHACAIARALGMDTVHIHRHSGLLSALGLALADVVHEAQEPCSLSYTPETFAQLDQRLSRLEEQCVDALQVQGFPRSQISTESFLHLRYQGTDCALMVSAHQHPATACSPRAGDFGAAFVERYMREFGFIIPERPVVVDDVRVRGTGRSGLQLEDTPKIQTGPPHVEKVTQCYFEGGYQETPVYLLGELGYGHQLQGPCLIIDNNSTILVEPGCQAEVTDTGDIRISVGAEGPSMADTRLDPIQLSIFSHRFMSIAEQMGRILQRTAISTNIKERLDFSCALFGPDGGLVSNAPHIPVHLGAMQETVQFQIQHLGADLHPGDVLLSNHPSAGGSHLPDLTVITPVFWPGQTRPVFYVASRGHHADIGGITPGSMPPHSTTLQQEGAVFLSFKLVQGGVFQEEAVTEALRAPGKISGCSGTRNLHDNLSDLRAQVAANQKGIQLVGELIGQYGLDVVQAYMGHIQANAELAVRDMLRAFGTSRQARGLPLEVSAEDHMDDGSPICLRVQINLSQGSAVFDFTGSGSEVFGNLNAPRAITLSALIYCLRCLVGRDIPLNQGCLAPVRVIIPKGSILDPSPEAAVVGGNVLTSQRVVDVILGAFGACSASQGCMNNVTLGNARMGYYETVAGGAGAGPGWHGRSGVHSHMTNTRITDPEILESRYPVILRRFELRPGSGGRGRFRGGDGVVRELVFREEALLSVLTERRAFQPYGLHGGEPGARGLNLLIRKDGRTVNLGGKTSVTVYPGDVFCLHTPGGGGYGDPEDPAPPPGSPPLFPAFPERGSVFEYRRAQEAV
As to conditions: enzymatic assay; cited from earlier work.

Turning to `CCOC(=O)[C@@H]1CCSC(=O)N1` [Homocysteine Metaprobe, L-2-oxo-tetrahydro-1,3-thiazine-4-carboxylic acid ethyl ester], the “Metabolic Response Index (MRI), BASAL” value in series [1] is on record as 85 +/− 14 (n = 4) MicroMol/kg/hr. Moreover, the “LI, load tolerance index (BASAL minus MET+)” value in series [2] is 57 +/− 24 (n = 4) MicroMol/kg/hr.

In the case of `O=C(O)[C@@H]1CS[13C](=O)N1` [OTC, L-2-oxo[^13C]thiazolidine-4-carboxylic acid], the “Metabolic Rate Index, ACE+” value at oxoprolinase [3] (ALL (22-73 yrs., n = 12)) amounted to 515 ± 227 nmol/kg/min; at oxoprolinase [3] (OLD (53-73 yrs., n = 5)) it was 452 ± 161 nmol/kg/min; at oxoprolinase [3] (YOUNG (22-39 yrs., n = 7)), 547 ± 269 nmol/kg/min. The “Metabolic Rate Index, STIM (difference between ACE+ and BASAL)” value at oxoprolinase [3] (ALL (22-73 yrs., n = 12)) is 208 ± 82 nmol/kg/min; on oxoprolinase [3] (OLD (53-73 yrs., n = 5)), 117 ± 40 nmol/kg/min; at oxoprolinase [3] (YOUNG (22-39 yrs., n = 7)) it was 261 ± 115 nmol/kg/min. Moreover, the “Metabolic Rate Index, BASAL” value came to 307 ± 108 nmol/kg/min at oxoprolinase [3] (ALL (22-73 yrs., n = 12)); 335 ± 110 nmol/kg/min at oxoprolinase [3] (OLD (53-73 yrs., n = 5)); 286 ± 111 nmol/kg/min at oxoprolinase [3] (YOUNG (22-39 yrs., n = 7)). The “action on oxoproline hydrolysis by oxoprolinase” value on oxoprolinase [4] was “competitive inhibitor of oxoproline hydrolysis”.

Values taken from US6610270B1, “In vivo determination of metabolic function for use in therapy management” (Xanthus Life Sciences, Inc., priority 1998, dated 2003).
